Assay results: patent publication US20220324796A1, “ANTIBIOTIC COMPOUNDS” (The General Hospital Corporation, priority 2019, published 2022)
≈ marks a conversion by molar mass, not a printed value.

Key:
[1] = test system: panel of 27 Gram-positive pathogens; test: MIC assay, panel of Gram-positive pathogens; type: cell-based; conditions: Staphylococcus aureus; range over panel of 27 Gram-positive pathogens incl. VRSA and resistant Enterococcal strains (FIG. 6); read-out: minimum inhibitory concentrations
Procedure: (§1) Bacterial strains and growth conditions. S. aureus strains were grown in tryptic soy broth (TSB) (BD, Franklin Lakes, N.J., USA). E. faecium and E. faecalis strains were grown in brain-heart infusion (BHI) broth (BD, Franklin Lakes, N.J., USA), and four Gram-negative species, Klebsiella pneumoniae, Acinetobacter baumannii, Pseudomonas aeruginosa, and Enterobacter aerogenes were grown in Luria Bertani (LB) broth (BD, Franklin Lakes, N.J., USA). All bacteria were grown at 37° C. at 200 r.p.m.
(§2) Minimal inhibitory concentration (MIC) assay. The MICs of antibiotics were determined by the standard micro-dilution method recommended by the Clinical and Laboratory Standards Institute. MIC assays were conducted in biological triplicate.

MRSA BF4 = test: MIC assay (micro-dilution); type: cell-based, S. aureus; conditions: Staphylococcus aureus; daptomycin-intermediate resistant MRSA strain BF4
Procedure: as §2

[2] = test system: daptomycin-intermediate or-resistant Enterococcal strains; test: MIC assay, Enterococcal strains; type: cell-based; conditions: Enterococcus; range over several daptomycin-intermediate or -resistant Enterococcal strains
Procedure: as §1, §2

[3] = test system: exponential-phase S. aureus MW2; test: Killing kinetics assay; type: cell-based
Procedure: Killing kinetics assay. An overnight culture of S. aureus MW2 ^−was diluted in 25 mL TSB to a concentration of ˜10^5 CFU/mL. The diluted culture was grown to exponential-phase (˜2×10^7 CFU/mL) at 37° C. with shaking at 200 rpm. 1 mL of the exponential-phase culture was added to each well of a 96-well assay block (Corning Costar 3960) containing 1 mL of 2× of the desired concentrations of antibiotics dissolved in pre-warmed TSB at 37° C. The assay block was then incubated at 37° C. with shaking at 200 rpm. At every hour, 400 μl cultures were removed, washed once with PBS, serially diluted and spot-plated onto tryptic soy agar (TSA, BD) plates. The plates were incubated at 37° C. overnight, and colonies were counted to determine the titer of the cultures. These experiments were conducted in biological triplicate.

[4] = test system: exponential phase MRSA MW2 cells; test: Cell lysis by optical density; type: cell-based, S. aureus; conditions: 10 μg/mL, 4 h
[5] = test system: VRSA strain VRS1 persisters; test: Persister killing assay; type: cell-based, S. aureus; conditions: linezolid and daptomycin at 100× MIC; bithionol at indicated concentrations (FIG. 1E)
Procedure: (§3) Persister killing assay. […] Persister cells of MRSA MW2 or VRSA VRS1 were prepared by growing cultures overnight to stationary phase at 37° C. at 200 rpm and washing three times with PBS. 1 mL of ˜1×10^8 CFU/mL MRSA persisters was added to 1 mL of PBS containing a 2-fold higher concentration of the desired concentration of antibiotics in a 96-well assay block (Corning Costar 3960). For assays with daptomycin, PBS was supplemented with 50 μg/mL CaCl2. The assay block was incubated at 37° C. with shaking at 200 rpm. At various times, 400 μl samples were removed, washed once with PBS, serially diluted and spot-plated on TSA plates. Colonies were counted after overnight incubation at 37° C. to determine the titer of live cells. These experiments were conducted in triplicate.

[6] = test system: stationary-phase MRSA MW2 persisters; test: Persister killing assay; type: cell-based, S. aureus
Procedure: as §3

[7] = test system: MRSA MW2 biofilm persisters; test: Biofilm persister killing assay; type: cell-based, S. aureus
Procedure: Biofilm persister killing assay. An overnight culture of S. aureus MW2 cells was diluted 1:200 with TSB supplemented with 0.2% glucose and 3% NaCl. A 13 mm diameter Millipore mixed cellulose ester membrane (EMD Millipore GSWP01300) was placed at the bottom of each well of a 12-well assay plate (Falcon 353043). […] was added to each well and statically incubated at 37° C. for 24 h. The membranes were washed 3-times with PBS and transferred to a fresh 12-well plate, 1 mL PBS containing the desired concentration of antibiotics was added to each well, and then the plate was statically incubated at 37° C. for 24 h, The membranes were washed 3 times with PBS, placed in 2-mL microcentrifuge tubes containing 1 mL PBS, and sonicated in an ultrasonic bath (Fisher Scientific FS 30) for 10 min. The sonicated samples were serially diluted, spot-plated on TSA to enumerate the number of live cells. The experiment was conducted in biological triplicate.

MRSA MW2 cells = test: Bacterial membrane permeability assay (SYTOX Green); type: cell-based, S. aureus
Procedure: Bacterial membrane permeability assay. Exponential-phase or stationary-phase S. aureus MW2 cells prepared as described above under Killing kinetics assay and Persister killing assay, respectively, were washed 3 times with the same volume of PBS. The washed cells were adjusted to OD600=0.4 with PBS. SYTOX Green (Molecular Probes, Waltham, Mass., USA) was added to 10 mL of the diluted bacterial suspension to a final concentration of 5 μM and incubated for 30 min at room temperature in the dark. 50 μl of the bacterial/SYTOX Green suspension was mixed with 50 μl of phosphate buffered saline (PBS) containing twice the desired concentrations of compounds in black, clear-bottom, 96-well plates (Corning no. 3904). Fluorescence was measured at room temperature using a spectrophotometer (SpectraMax M2, Molecular Devices) with excitation and emission wavelengths of 485 nm and 525 nm, respectively. All experiments were conducted in biological triplicate.

[8] = test system: MRSA strain MW2 persisters; test: Deep-seated mouse thigh infection model, bacterial load; type: in vivo; conditions: 30 mg/kg each agent, every 12 h for 3 days from 24 h post-infection
Procedure: Deep-seated mouse thigh infection model. […] Mice were euthanized at 96 h post-infection. […] Thighs were homogenized in PBS, serially diluted with PBS, and spot-plated on TSA plates.

Question: Which results are given for `Oc1c(Cl)cc(Cl)cc1Sc1cc(Cl)cc(Cl)c1O` [bithionol, 6,6′-thio-bis-(2,4-dichlorophenol)]?
Answer: MIC [1]: 0.5 to 2 mg/L (≈ 1.4 to 5.62 µM); MIC (MRSA BF4): 0.5 mg/L (≈ 1.4 µM); MIC [2]: 0.5 to 2 mg/L (≈ 1.4 to 5.62 µM); time to eradicate ~10^7 CFU/mL exponential-phase S. aureus MW2 ([3]; 10 μg/mL (10× MIC)): ≤ 3 h; rate of killing ([3]; 10× MIC, compared with daptomycin and vancomycin): comparable to daptomycin (at 10× MIC) but significantly faster than the killing kinetics of vancomycin; optical density of S. aureus cells (bacteriolytic activity) [4]: time-dependent decrease in optical density; activity against VRSA VRS1 persisters [5]: highly efficacious at eradicating; time to complete eradication of stationary-phase MRSA persisters ([6]; 32 μg/mL (32× MIC)): ≤ 2 h; concentration required to completely eradicate stationary-phase MRSA persisters ([6]; 5×10^7 CFU/mL MRSA MW2 persisters): 32 µg/mL; concentrations exhibiting significant killing activity against MRSA MW2 persisters ([6]; FIG. 1C): > 16 µg/mL; viability of MRSA persisters ([6]; bithionol 8 μg/mL alone (FIGS. 1C, D)): do not lead to a significant decrease in the viability; time to complete eradication of biofilm persisters ([7]; 32 μg/mL (32× MIC)): ≤ 24 h; concentration completely eradicating biofilm persisters ([7]; 24 h treatment): 32 µg/mL; SYTOX Green membrane permeabilization (MRSA MW2 cells; MRSA MW2 exponential-phase cells and/or persisters, in words): dose-dependent membrane permeability; concentration at which SYTOX Green fluorescence intensity was maximized (MRSA MW2 cells; decreased above 8 μg/mL): 4 µg/mL; effect on MRSA CFUs in the mouse thigh [8]: no effect
